Results: ChEMBL document CHEMBL1134555 (J Med Chem, 2001)

What follows are compounds tested against Nitric oxide synthase 1 (Rattus norvegicus, UniProt P29476) (assay: Inhibitory activity against recombinant rat nNOS.).
Sequence of Nitric oxide synthase 1 (P29476 whole entry): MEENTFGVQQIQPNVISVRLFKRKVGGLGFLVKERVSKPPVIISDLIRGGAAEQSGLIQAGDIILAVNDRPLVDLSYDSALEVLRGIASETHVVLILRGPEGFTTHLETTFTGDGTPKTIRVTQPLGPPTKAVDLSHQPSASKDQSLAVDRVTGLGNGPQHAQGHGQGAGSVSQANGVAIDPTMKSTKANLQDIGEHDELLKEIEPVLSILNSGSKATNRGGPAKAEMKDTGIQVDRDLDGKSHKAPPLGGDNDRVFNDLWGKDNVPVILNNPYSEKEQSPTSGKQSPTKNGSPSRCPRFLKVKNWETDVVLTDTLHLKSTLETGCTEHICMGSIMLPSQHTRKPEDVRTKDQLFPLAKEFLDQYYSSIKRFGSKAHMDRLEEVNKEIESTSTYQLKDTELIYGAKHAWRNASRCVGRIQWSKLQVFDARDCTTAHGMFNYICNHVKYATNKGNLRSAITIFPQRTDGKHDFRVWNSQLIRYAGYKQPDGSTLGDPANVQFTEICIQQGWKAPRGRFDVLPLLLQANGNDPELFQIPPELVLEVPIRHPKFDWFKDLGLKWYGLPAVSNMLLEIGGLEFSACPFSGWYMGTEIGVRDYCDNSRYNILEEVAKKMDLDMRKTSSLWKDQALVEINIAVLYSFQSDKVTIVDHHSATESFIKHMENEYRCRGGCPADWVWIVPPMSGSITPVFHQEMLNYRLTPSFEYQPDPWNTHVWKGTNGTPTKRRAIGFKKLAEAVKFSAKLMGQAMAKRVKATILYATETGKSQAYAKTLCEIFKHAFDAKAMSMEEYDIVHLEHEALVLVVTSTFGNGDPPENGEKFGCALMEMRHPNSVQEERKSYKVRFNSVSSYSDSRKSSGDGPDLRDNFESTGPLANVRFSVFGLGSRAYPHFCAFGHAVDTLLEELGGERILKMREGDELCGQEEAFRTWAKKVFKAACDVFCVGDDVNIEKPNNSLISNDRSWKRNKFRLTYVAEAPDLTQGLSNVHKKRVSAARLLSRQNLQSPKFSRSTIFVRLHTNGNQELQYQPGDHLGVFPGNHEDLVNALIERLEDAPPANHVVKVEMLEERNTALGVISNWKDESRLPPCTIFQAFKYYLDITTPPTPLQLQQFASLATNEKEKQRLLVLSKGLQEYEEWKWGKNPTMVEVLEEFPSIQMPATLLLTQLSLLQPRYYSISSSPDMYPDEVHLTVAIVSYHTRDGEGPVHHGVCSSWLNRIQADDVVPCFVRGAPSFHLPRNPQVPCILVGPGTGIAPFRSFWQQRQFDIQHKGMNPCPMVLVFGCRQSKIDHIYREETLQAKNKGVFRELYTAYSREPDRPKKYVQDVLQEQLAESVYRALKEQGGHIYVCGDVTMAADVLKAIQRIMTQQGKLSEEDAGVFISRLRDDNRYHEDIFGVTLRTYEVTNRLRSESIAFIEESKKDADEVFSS

`N=C(NCCC[C@H](N)C(=O)NCCN)N[N+](=O)[O-]` and `N=C(NCCC[C@H](N)C(=O)NCCCN)N[N+](=O)[O-]` are within 1.5-fold of each other in Ki: 540 nM for the first, 460 nM for the second.

`N=C(NCCC[C@H](N)C(=O)NCCCCN)N[N+](=O)[O-]` gave a Ki of 350 nM.
